Data as given in ChEMBL document CHEMBL4138213, “Synthesis and biological characterization of ubenimex-fluorouracil conjugates for anti-cancer therapy” (Eur J Med Chem, 2018).
The source made the active and inactive calls. No cut-off for these calls is given here.

Assays:
PLC-PRF-5 [1] = test: Induction of apoptosis in human PLC/PRF/5 cells assessed as viable cells at 20 uM in presence of 5-FU after 48 hrs by annexin-V-FITC/propidium iodide staining-based flow cytometric method (reference value: 93.7%); type: functional; details: PLC-PRF-5, 48 h, read-out: Activity
HepG2 [2] = test: Antiproliferative activity against human HepG2 cells in presence of 5-FU after 48 hrs by MTT assay; type: functional, cell-based; details: HepG2, 48 h
[3] = Drug level in Wistar rat plasma treated with (5-fluoro-2,4-dioxo-3,4-dihydropyrimidin1(2H)-yl)methyl-2-((S)-2-((2S,3R)-3-amino-2-hydroxy-4-phenylbut-anamido)-4-methylpentanamido)acetate hydrochloride assessed as peptidase-mediated compound formation at 80 mg/kg, iv by HPLC-MS/MS analysis; type: ADME, organism-based; details: in vivo
Rattus norvegicus = test: VRT (0 to infinity) in Wistar rat at 80 mg/kg, iv after 0.05 to 24 hrs by HPLC-MS/MS analysis; type: ADME, organism-based; details: in vivo
PLC-PRF-5 [4] = test: Induction of apoptosis in human PLC/PRF/5 cells assessed as late apoptotic cells at 20 uM in presence of 5-FU after 48 hrs by annexin-V-FITC/propidium iodide staining-based flow cytometric method (reference value: 0.341%); type: functional
[5] = Cmax in Wistar rat at 80 mg/kg, iv after 0.05 to 24 hrs by HPLC-MS/MS analysis; type: ADME, organism-based; parameters: dose 80 mg/kg, route intravenous; details: in vivo
PLC-PRF-5 [6] = test: Induction of apoptosis in human PLC/PRF/5 cells assessed as necrotic cells at 20 uM in presence of 5-FU after 48 hrs by annexin-V-FITC/propidium iodide staining-based flow cytometric method (reference value: 0.106%); type: functional
PLC-PRF-5 [7] = test: Downregulation of CD13 expression in human PLC/PRF/5 cells at 10 uM in presence of 5-FU after 48 hrs by flow cytometric method; type: functional, cell-based
[8] = Antiproliferative activity against human H7402 cells in presence of 5-FU after 48 hrs by MTT assay; details: H7402, 48 h
[9] = Terminal Half life in Wistar rat at 80 mg/kg, iv after 0.05 to 24 hrs by HPLC-MS/MS analysis; type: ADME, organism-based; details: Wistar, in vivo, read-out: beta t1/2 (converted)
PLC-PRF-5 [10] = test: Induction of apoptosis in human PLC/PRF/5 cells assessed as early apoptotic cells at 20 uM after 48 hrs by annexin-V-FITC/propidium iodide staining-based flow cytometric method (reference value: 5.82%); type: functional
[11] = Volume of distribution during elimination phase in Wistar rat at 80 mg/kg, iv after 0.05 to 24 hrs by HPLC-MS/MS analysis; type: ADME, organism-based; details: in vivo, read-out: Vz
HepG2 [12] = test: cells; details: Homo sapiens, HepG2, 48 h
U-266 [13] = test: Antiproliferative activity against human U266 cells after 48 hrs by MTT assay; details: U-266, 48 h
HUVEC = details: Homo sapiens, 30 uM
PLC-PRF-5 [14] = test: Downregulation of CD13 expression in human PLC/PRF/5 cells at 10 uM after 48 hrs by flow cytometric method; type: functional, cell-based
HCT-116 [15] = test: Antiproliferative activity against human HCT116 cells in presence of 5-FU after 48 hrs by MTT assay; details: HCT-116, 48 h
PLC-PRF-5 [16] = test: Induction of apoptosis in human PLC/PRF/5 cells assessed as early apoptotic cells at 20 uM in presence of 5-FU after 48 hrs by annexin-V-FITC/propidium iodide staining-based flow cytometric method (reference value: 5.82%); type: functional
[17] = MRT (0 to infinity) in Wistar rat at 80 mg/kg, iv after 0.05 to 24 hrs by HPLC-MS/MS analysis; type: ADME, organism-based; details: Wistar, in vivo
[18] = Apparent clearance in Wistar rat at 80 mg/kg, iv after 0.05 to 24 hrs by HPLC-MS/MS analysis; type: ADME, organism-based; details: in vivo, read-out: CL(app) (converted)
PLC-PRF-5 [19] = test: Induction of apoptosis in human PLC/PRF/5 cells assessed as late apoptotic cells at 20 uM after 48 hrs by annexin-V-FITC/propidium iodide staining-based flow cytometric method (reference value: 0.341%); type: functional
HCT-116 [20] = test: cells; details: Homo sapiens, HCT-116, 48 h
PLC-PRF-5 [21] = test: Antiproliferative activity against human PLC/PRF/5 cells in presence of 5-FU after 48 hrs by MTT assay; type: functional, cell-based; details: PLC-PRF-5, 48 h
[22] = Antiproliferative activity against human ES2 cells in presence of 5-FU after 48 hrs by MTT assay; details: ES-2, 48 h
PLC-PRF-5 [23] = test: Induction of apoptosis in human PLC/PRF/5 cells assessed as necrotic cells at 20 uM after 48 hrs by annexin-V-FITC/propidium iodide staining-based flow cytometric method (reference value: 0.106%); type: functional
U-266 [24] = test: Antiproliferative activity against human U266 cells in presence of 5-FU after 48 hrs by MTT assay; type: functional, cell-based; details: U-266, 48 h
PLC-PRF-5 [25] = test: Antiproliferative activity against human PLC/PRF/5 cells after 48 hrs by MTT assay; details: PLC-PRF-5, 48 h
U-937 [26] = test: cells; details: Homo sapiens, U-937, 48 h
Description: Antiproliferative activity against human U937 cells after 48 hrs by MTT assay

U-937 [27] = test: Antiproliferative activity against human U937 cells in presence of 5-FU after 48 hrs by MTT assay; details: U-937, 48 h
PLC-PRF-5 [28] = test: Induction of apoptosis in human PLC/PRF/5 cells assessed as viable cells at 20 uM after 48 hrs by annexin-V-FITC/propidium iodide staining-based flow cytometric method (reference value: 93.7%); type: functional; details: PLC-PRF-5, 48 h, read-out: Activity
A549 = test: Antiproliferative activity against human A549 cells in presence of 5-FU after 48 hrs by MTT assay; details: A549, 48 h
[29] = AUC (0 to infinity) in Wistar rat at 80 mg/kg, iv after 0.05 to 24 hrs by HPLC-MS/MS analysis; type: ADME, organism-based; parameters: dose 80 mg/kg, time infinity, route intravenous; details: in vivo

## CC(C)C[C@H](NC(=O)[C@@H](O)[C@H](N)Cc1ccccc1)C(=O)O [UBENIMEX]
PLC-PRF-5 [1]
  viability at 20 µM: 64.3%
HepG2 [2]
  IC50: 14.5 µM
[3]
  Drug metabolism: Metabolite_Detected
Rattus norvegicus
  VRT: 13.087 hr2
PLC-PRF-5 [4]
  Activity: 2.38%
[5]
  Cmax: 2300 ng/mL
PLC-PRF-5 [6]
  Activity: 0%
PLC-PRF-5 [7]
  Activity: Active
[8]
  IC50: 17.6 µM
[9]
  half-life: 3.4 h
PLC-PRF-5 [10]
  Activity: 13%
[11]
  Vd: 34.2 L/kg
HepG2 [12]
  IC50: > 500 µM
U-266 [13]
  IC50: > 500 µM
HUVEC
  inhibition: Active
PLC-PRF-5 [14]
  Activity: Active
HCT-116 [15]
  IC50: 44.1 µM
PLC-PRF-5 [16]
  Activity: 33.3%
[17]
  MRT inf: 3.44 h
[18]
  clearance: 116 mL/min/kg
PLC-PRF-5 [19]
  Activity: 3.59%
HCT-116 [20]
  IC50: 358 µM
PLC-PRF-5 [21]
  IC50: 22.8 µM
[22]
  IC50: 37.1 µM
PLC-PRF-5 [23]
  Activity: 0.01%
U-266 [24]
  IC50: 43.5 µM
PLC-PRF-5 [25]
  IC50: > 500 µM
U-937 [26]
  IC50: 143 µM
U-937 [27]
  IC50: 9.56 µM
PLC-PRF-5 [28]
  viability at 20 µM: 83.4%
A549
  IC50: 15.9 µM
[29]
  AUC(0-inf): 11500 ng·h/mL
